Test [1] relates to AsPC-1 cells. Put plainly: Cellular phospho-ERK assay, AsPC-1 cells (homozygous KRAS-G12D). Format: cell-based. To be noted: Homo sapiens, ASPC1, 2 h, read-out: AsPC1 pERK IC50. A digest of the protocol:
(§1)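 Overnight-plated cells on collagen received test compound (up to 30 μM final, threefold steps, ten concentrations) for two hours. After lysis at room temperature, phosphorylated and total ERK were quantified together by Alpha SureFire, and IC50 is based on the phospho-to-total signal ratio.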

The test system of test [2] is SW620 cells. Briefly: Cellular phospho-ERK assay, SW620 cells (homozygous KRAS-G12V). The class given is cell-based. To be noted: Homo sapiens, read-out: SW620 pERK IC50. In a few lines: as §1
Test [3] concerns the target KRAS-G12D (Homo sapiens, UniProt P01116, G12D). Briefly: SOS-catalyzed nucleotide exchange assay (Procedure A, TR-FRET), KRAS-G12D. The class given is biochemical. To be noted: nucleotide exchange, read-out: KRAS G12D GNE IC50. In a few lines:
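Signal ratio (520/495 nm, excitation 340 nm) reports Bodipy-GDP retention on biotinylated RAS after SOS-catalyzed exchange with 3 mM GTP. SOS was 40 nM, except 160 nM for G12V. Room-temperature exchange lasted 60 min (90 min for G12V), following a 60 min compound preincubation.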
Background: Time-resolved FRET reads energy transfer from a long-lived donor to a nearby acceptor.

Test [4] deals with KRAS-WT (Homo sapiens, UniProt P01116). Put plainly: SOS-catalyzed nucleotide exchange assay (Procedure A, TR-FRET), KRAS-WT. The class given is biochemical. To be noted: nucleotide exchange, read-out: KRAS WT GNE IC50. In a few lines: (§2)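 TR-FRET readout (520/495 nm) of SOS-driven exchange of Bodipy-GDP for unlabeled GTP (3 mM) on biotinylated, Tb-streptavidin-bound RAS, after 60 min compound preincubation at room temperature. Exchange times and RAS/SOS levels: 60 min for WT (1/40 nM), G12C triple mutant (3/40 nM), NRAS (1.25/40 nM); 90 min for G12V (1.25/160 nM). Four-parameter logistic fits on normalized effect.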

Test [5] deals with MKN-1 cells. Briefly: Cellular phospho-ERK assay, MKN-1 cells (amplified wild-type KRAS). To be noted: Homo sapiens, read-out: MKN1 pERK IC50. Format: cell-based. A digest of the protocol: as §1
The target of test [6] is KRAS-G12V (Homo sapiens, UniProt P01116, G12V). Briefly: SOS-catalyzed nucleotide exchange assay (Procedure A, TR-FRET), KRAS-G12V. To be noted: nucleotide exchange, read-out: KRAS G12V GNE IC50. The class given is biochemical. A digest of the protocol:
as §2

[7] abbreviates: amplified wild-type KRAS, 2 hours.
The mark [8] stands for this setting: SW-620, 2 hours compound incubation.

The structures appear in SMILES notation. Read-outs that look alike come from different tables or passages of the source.

Chain of KRAS-G12V (P01116 with tags, fused parts or gaps isoform P01116-2 G12V): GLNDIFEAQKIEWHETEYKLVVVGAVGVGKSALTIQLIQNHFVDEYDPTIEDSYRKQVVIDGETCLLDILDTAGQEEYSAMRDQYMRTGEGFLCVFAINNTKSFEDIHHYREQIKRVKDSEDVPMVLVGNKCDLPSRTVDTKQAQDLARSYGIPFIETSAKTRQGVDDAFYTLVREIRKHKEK
Chain of KRAS-G12D (P01116 with tags, fused parts or gaps isoform P01116-2 G12D): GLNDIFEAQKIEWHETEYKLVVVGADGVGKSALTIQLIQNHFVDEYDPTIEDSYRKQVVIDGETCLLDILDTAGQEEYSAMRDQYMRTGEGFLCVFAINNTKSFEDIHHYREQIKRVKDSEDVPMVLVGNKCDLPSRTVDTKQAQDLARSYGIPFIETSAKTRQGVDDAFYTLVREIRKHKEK
Chain of KRAS-WT (P01116 with tags, fused parts or gaps isoform P01116-2): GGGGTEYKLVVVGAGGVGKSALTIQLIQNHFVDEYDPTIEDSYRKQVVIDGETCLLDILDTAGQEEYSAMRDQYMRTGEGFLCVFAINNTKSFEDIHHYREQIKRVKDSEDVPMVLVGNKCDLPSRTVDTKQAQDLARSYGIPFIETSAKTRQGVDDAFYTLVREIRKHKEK

Broadly, the IC50 is the point on the concentration scale where inhibition reaches its midpoint. Consider `C[C@@]1(O)COCCN(c2nc(OC[C@@]34CCCN3C[C@H](F)C4)nc3sc4c(-c5c6c(cc7[nH]ncc57)CC=C6C5CC5)nccc4c23)C1` [Ex-105, (6S)-4-(8-(5-cyclopropyl-1,7-dihydrocyclopenta[f]inda-zol-4-yl)-2-(((2R,7aS)-2-fluorotetrahydro-1H-pyrrolizin-7a(5H)-yl)methoxy)pyrido[4′,3′:4,5]thieno[2,3-d]pyrimidin-4-yl)-6-methyl-1,4-oxazepan-6-ol], for which the IC50 was determined as 158 nM in test [1] (KRAS-G12D, 2 hours); 80.5 nM in test [2] (SW-620, KRAS-G12V, 2 hours); 26.7 nM in test [3]; 72.2 nM in test [4]; 136 nM in test [5] (setting [7]); 37.2 nM in test [6].
In the case of `C[C@@]1(O)COCCN(c2nc(OC[C@@]34CCCN3C[C@H](F)C4)nc3sc4c(-c5c6cn[nH]c6cc6cccc(Cl)c56)nccc4c23)C1` [Ex-161, (6S)-4-(8-(5-chloro-1H-benzo[f]indazol-4-yl)-2-(((2R,7aS)-2-fluorotetrahydro-1H-pyrrolizin-7a(5H)-yl)methoxy)pyrido[4′,3′:4,5]thieno[2,3-d]pyrimidin-4-yl)-6-methyl-1,4-oxazepan-6-ol], the IC50 in test [1] (2 hours compound incubation) worked out at 61.7 nM; in test [2] (setting [8]), 32.1 nM; in test [3] it was 6.04 nM; in test [4], 15.2 nM; in test [5] (2 hours compound incubation) it was 28.4 nM; in test [6] it was 11.4 nM.
With `Cc1cc2[nH]ncc2c(-c2nccc3c2sc2nc(OC[C@@]45CCCN4C[C@H](F)C5)nc(N4CCOC[C@]5(CCO5)C4)c23)c1C(F)(F)F` [Ex-198, (4S)-9-(2-(((2R,7aS)-2-fluorotetrahydro-1H-pyr-rolizin-7a(5H)-yl)meth-oxy)-8-(6-methyl-5-(tri-fluoromethyl)-1H-indazol-4-yl)pyrido[4′,3′:4,5]thieno[2,3-d]pyrimidin-4-yl)-1,6-dioxa-9-azaspiro [3.6]decane], the IC50 in test [1] (2 hours compound incubation) was found to be 140 nM; in test [2] (setting [8]), 74.3 nM; in test [3] it was 36 nM; in test [4], 132 nM; in test [5] (2 hours compound incubation), 120 nM; in test [6], 33.5 nM.
Regarding `C[C@@]1(O)COCCN(c2nc(OC[C@@]34CCCN3C[C@H](F)C4)nc3c(F)c4c(-c5c(C6CC6)c(Cl)cc6[nH]ncc56)nccn4c23)C1` [Ex-305, (S)-4-(9-(6-chloro-5-cyclopropyl-1H-indazol-4-yl)-10-fluoro-2-(((2R,7aS)-2-fluorotetrahydro-1H-pyrrolizin-7a(5H)-yl)methoxy)pyrazino[1′,2′:1,5]pyrrolo[3,2-d]pyrimidin-4-yl)-6-methyl-1,4-oxazepan-6-ol], the half-inhibitory concentration (IC50) was determined as 212 nM in test [1] (KRAS-G12D, 2 hours); 54.7 nM in test [2] (SW-620, KRAS-G12V, 2 hours); 11.6 nM in test [3]; 37 nM in test [4]; 93 nM in test [5] (setting [7]); 23.8 nM in test [6].
Consider `CO[C@@H]1CN2CCC[C@@]2(COc2nc(N3CCOC[C@@](C)(O)C3)c3c(n2)sc2c(-c4c(C5CC5)c(Cl)cc5[nH]ncc45)nccc23)C1` [Ex-228, (6S)-4-(8-(6-chloro-5-cyclopropyl-1H-indazol-4-yl)-2-(((25,7aS)-2-meth-oxytetrahydro-1H-pyrrolizin-7a(5H)-yl)methoxy)pyrido [4′,3′:4,5]thieno[2,3-d]pyrimidin-4-yl)-6-methyl-1,4-oxaze-pan-6-ol], for which the IC50 in test [1] (2 hours compound incubation) was determined as 379 nM; in test [2] (setting [8]), 133 nM; in test [3], 16 nM; in test [4], 53 nM; in test [5] (2 hours compound incubation), 180 nM; in test [6], 38.2 nM.
Take `CCC1(F)c2c(cc3[nH]ncc3c2-c2nccc3c2sc2nc(OC[C@@]45CCCN4C[C@H](F)C5)nc(N4CCOC[C@@](C)(O)C4)c23)CC1(F)F` (stereo partly drawn) [Ex-98, (6S)-4-(8-(5-ethy1-5,6,6-trifluoro-1,5,6,7-tetrahydrocyclopenta[f]in-dazol-4-yl)-2-(((2R,7aS)-2-fluorotetrahydro-1H-pyrrolizin-7a(5H)-yl)methoxy)pyrido[4′,3′:4,5]thi-eno[2,3-d]pyrimidin-4-yl)-6-methyl-1,4-oxazepan-6-ol]: the IC50 is 175 nM in test [1] (KRAS-G12D, 2 hours); 68.8 nM in test [2] (SW-620, KRAS-G12V, 2 hours); 18.9 nM in test [3]; 61.3 nM in test [4]; 72.8 nM in test [5] (setting [7]); 20.8 nM in test [6].
As to `C[C@@]1(O)COCCN(c2nc(OC[C@@]34CCCN3C[C@H](F)C4)nc3sc4c(-c5c(C6=CCC6)c(Cl)cc6[nH]ncc56)nccc4c23)C1` [Ex-70, (6S)-4-(8-(6-chloro-5-(cyclobut-1-en-1-yl)-1H-indazol-4-yl)-2-(((2R,7aS)-2-fluorotetrahydro-1H-pyrrolizin-7a(5H)-yl)methoxy)pyrido[4′,3′:4,5]thi-eno[2,3-d]pyrimidin-4-yl)-6-methyl-1,4-oxazepan-6-ol], the IC50 in test [1] (KRAS-G12D, 2 hours) is 95.1 nM; in test [2] (SW-620, KRAS-G12V, 2 hours), 29.6 nM; in test [3], 6.5 nM; in test [4], 33.8 nM; in test [5] (setting [7]), 61.8 nM; in test [6] it was 19.6 nM.
As to `Cc1cc2[nH]ncc2c(-c2nccc3c2sc2nc(OC[C@@]45CCCN4C[C@H](F)C5)nc(N4CCOCC5(CC(C)O5)C4)c23)c1C(F)(F)F` (stereo partly drawn) [Ex-199, 9-(2-(((2R,7aS)-2-fluoro-tetrahydro-1H-pyrrolizin-7a(5/7)-yl)methoxy)-8-(6-methyl-5-(trifluorometh-yl)-1H-indazol-4-yl)pyrido [4′,3′:4,5]thieno[2,3-d]pyr-imidin-4-yl)-2-methyl-1,6-dioxa-9-azaspiro[3.6] decane], the IC50 was 374 nM in test [1] (2 hours compound incubation); 190 nM in test [2] (setting [8]); 86.8 nM in test [3]; 287 nM in test [4]; 313 nM in test [5] (2 hours compound incubation); 92.6 nM in test [6].
For the compound `CN(C)C1COC2C[C@@]21COc1nc(N2CCOC[C@@](C)(O)C2)c2c(n1)sc1c(-c3c(C4(F)CC4)c(Cl)cc4[nH]ncc34)nccc12` (stereo partly drawn) [Ex-269, (6S)-4-(8-(6-chloro-5-(1-fluorocyclopropyl)-1H-indazol-4-yl)-2-((4-(dimethylamino)-2-oxabicyclo[3.1.0]hexan-5-yl)methoxy)pyri-do[4′,3′:4,5]thi-eno[2,3-d]pyrimidin-4-yl)-6-methyl-1,4-oxazepan-6-ol], the IC50 in test [1] (2 hours compound incubation) was 182 nM; in test [2] (setting [8]), 84.5 nM; in test [3], 8.13 nM; in test [4], 24.9 nM; in test [5] (2 hours compound incubation), 90.1 nM; in test [6], 20 nM.
For the compound `Cc1cc2[nH]ncc2c(-c2nccc3c2sc2nc(OC[C@@]45CCCN4C[C@H](F)C5)nc(N4CCOC[C@@](C)(O)C4)c23)c1C1(C)CC1` [Ex-62, (6S)-4-(2-(((2R,7aS)-2-fluorotetrahydro-1H-pyrrolizin-7a(5H)-yl)methoxy)-8-(6-methyl-5-(1-methylcyclopropyl)-1H-indazol-4-yl)pyrido[4′,3′:4,5]thieno [2,3-d]pyrimidin-4-yl)-6-methyl-1,4-oxazepan-6-ol], the IC50 was 175 nM in test [1] (KRAS-G12D, 2 hours); 131 nM in test [2] (SW-620, KRAS-G12V, 2 hours); 29.8 nM in test [3]; 53.7 nM in test [4]; 251 nM in test [5] (setting [7]); 21.7 nM in test [6].
Take `CN1CCC[C@H]1COc1nc(N2CCOC[C@@](C)(O)C2)c2c(n1)sc1c(-c3c(C4CC4)c(Cl)cc4[nH]ncc34)nccc12` [Ex-80, (6S)-4-(8-(6-chloro-5-cyclopropyl-1H-indazol-4-yl)-2-(((S)-1-methylpyrrolidin-2-yl)methoxy)pyrido[4′,3′:4,5]thi-eno[2,3-d]pyrimidin-4-yl)-6-methy1-1,4-oxazepan-6-ol]: the IC50 in test [1] (KRAS-G12D, 2 hours) came out at 200 nM; in test [2] (SW-620, KRAS-G12V, 2 hours), 131 nM; in test [3], 32.7 nM; in test [4], 89 nM; in test [5] (setting [7]), 143 nM; in test [6] it was 42 nM.
Take `C=C1CCCc2cc3[nH]ncc3c(-c3nccc4c3sc3nc(OC[C@@]56CCCN5C[C@H](F)C6)nc(N5CCOC[C@@](C)(O)C5)c34)c21` [Ex-115, (6S)-4-(2-(((2R,7aS)-2-fluorotetrahydro-1H-pyrrolizin-7a(5H)-yl)methoxy)-8-(5-methylene-5,6,7,8-tetrahydro-1H-benzo[f]indazol-4-yl)pyrido[4′,3′:4,5]thieno [2,3-d]pyrimidin-4-yl)-6-methyl-1,4-oxazepan-6-ol]: the IC50 turned out to be 46.6 nM in test [1] (KRAS-G12D, 2 hours); 18.9 nM in test [2] (SW-620, KRAS-G12V, 2 hours); 3.98 nM in test [3]; 10.8 nM in test [4]; 24.6 nM in test [5] (setting [7]); 13.2 nM in test [6].

The record behind these values is patent publication US20260176289A1, “SMALL MOLECULE INHIBITORS OF KRAS PROTEINS” (Merck Sharp & Dohme LLC, priority 2022, published 2026).
